This note sets out measurements from patent US7696243B2, “Pyrrolidin-2-one derivatives for use as DP1 receptor agonists” (Merck Serono, S.A., priority 2004, dated 2010).

Entries after “also recorded” stand apart in the source; their conditions may differ.

Data set [1] concerns the target T1, h-DP1 (Homo sapiens, UniProt Q13258).
T1 construct: expressed in transfected cells; host or cells: HEK293-EBNA
T1 sequence (Q13258 1-359): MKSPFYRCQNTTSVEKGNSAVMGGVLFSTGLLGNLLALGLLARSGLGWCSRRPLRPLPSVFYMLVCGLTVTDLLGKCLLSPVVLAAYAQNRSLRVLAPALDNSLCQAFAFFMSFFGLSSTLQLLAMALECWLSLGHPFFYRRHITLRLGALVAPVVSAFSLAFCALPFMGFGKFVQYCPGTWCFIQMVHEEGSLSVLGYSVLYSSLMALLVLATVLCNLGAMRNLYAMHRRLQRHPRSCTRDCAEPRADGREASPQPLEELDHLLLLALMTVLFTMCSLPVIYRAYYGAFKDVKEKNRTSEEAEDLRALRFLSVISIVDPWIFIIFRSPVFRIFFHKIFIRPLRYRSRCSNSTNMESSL
In words: DP1 receptor binding assay (SPA, receptor membranes). Here is the method:
(§1) HEK 293(ebna) cells or other cells stably transfected with the appropriate receptor are maintained in culture, harvested and membranes are prepared by differential centrifugation, following lysis of the cells in the presence of protease inhibitors, for use in receptor binding assays.
(§2) Prostanoid receptor binding assays are performed in 10 mM MES/KOH (pH 6.0) (EPs, FP and TP) or 10 mM HEPES/KOH (pH 7.4) (DP and IP), containing 1 mM EDTA, 10 mM divalent cation and the appropriate radioligand for the given receptor. The reaction is initiated by addition of membrane protein. Typically, the ligands are added in a solvent such as dimethylsulfoxide which is kept constant at 1% (v/v) in all incubations. Non-specific binding is determined in the presence of 1 μM of the corresponding non-radioactive prostanoid. Incubations are conducted for 60 min at room temperature or 30° C. and terminated by rapid filtration. Specific binding is calculated by subtracting non-specific binding from total binding. The residual specific binding at each ligand concentration is calculated and expressed as a function of ligand concentration in order to construct sigmoidal concentration-response curves for determination of ligand affinity.
(§3) In another protocol, compounds of the invention are tested in DP1 receptor binding assay of the following protocol. A mixture containing 20 μg of DP1 receptor membranes, 0.5 mg of wheat germ agglutinin coated PVT-SPA beads, plus or minus a test compound of the invention (25 μl per well) or 10 μM of cold PGE2 at 1% DMSO and 20 nM radiolabeled ligand for the receptor (e.g., tritiated-PGE2) in assay buffer containing 25 mM MES, 10 mM MgCl2, 1 mM EDTA, pH 6.0 are incubated in Corning 3600 plates on a plate shaker for 2 hrs at room temperature. Binding of the radiolabeled ligand binding is evaluated by counting the plates on the top count using the 3H SPA dpm2 program. % Binding and Ki value for inhibitors are calculated based on the one site competition parameter using the Graphpad® prism program. Such an assay may be modified by employing the different receptors and their specific ligands to assess the activity of the compounds of the present invention against such receptors. Using such an assay, the DP1 Ki values for a number of exemplary compounds of the present invention were calculated and are shown in Table 1.

Data set [2] addresses T1, h-DP1. In words: Whole cell second messenger (cAMP) assay on cells expressing DP1. The format is cell-based. The protocol:
Whole cell second messenger assays measuring stimulation (EP2, EP4, DP1, DP2 and IP in HEK 293(ebna) cells) or inhibition (EP3 in human erythroleukemia (HEL) cells) of intracellular cAMP accumulation or mobilization of intracellular calcium (EP1, FP and TP in HEK 293(ebna) cells stably transfected with apo-aequorin) are performed to determine whether receptor ligands are agonists or antagonists. For cAMP assays, cells are harvested and resuspended in HBSS containing 25 mM HEPES, pH 7.4. Incubations contain 100 μM RO-20174 (phosphodiesterase type IV inhibitor, available from Biomol) and, in the case of the EP3 inhibition assay only, 15 μM forskolin to stimulate cAMP production.
Samples are incubated at 37° C. for 10 min, the reaction is terminated and cAMP levels are then measured. For calcium mobilization assays, cells are charged with the co-factors reduced glutathione and coelenterazine, harvested and resuspended in Ham's F12 medium. Calcium mobilization is measured by monitoring luminescence provoked by calcium binding to the intracellular photoprotein aequorin. Ligands are added in dimethylsulfoxide which is kept constant at 1% (v/v) in all incubations.
For agonists, second messenger responses are expressed as a function of ligand concentration and both EC50 values and the maximum response as compared to a prostanoid standard are calculated. For antagonists, the ability of a ligand to inhibit an agonist response is determined by Schild analysis and both KB and slope values are calculated.
In another exemplary protocol, HEK293-EBNA cells transfected with the appropriate receptors are seeded in 96 well opaque plate (Costar #3917) at 4×10^4 cells per well in 100 μl of culture medium (D-MEM/F12 supplemented with 10% FBS, […] L-glutamine, and 250 μg/ml of hygromycin; all from GibcoBRL) and incubated at 37° C. After overnight incubation, the medium was removed from each well and replaced with 45 μl of assay medium consisted of phenol red free D-MEM/F-12, 0.1% BSA (GibcoBRL) and 0.1 mM 3 isobutyl-1-methyl-xanthine (Sigma). After 15 minutes of incubation at 37° C., 16-16-dimethyl PGE-2 or compounds at desired concentrations in 20 μl of assay medium were added to cells and further incubated at 37° C. for 1 hour. Total cAMP (intra- and extracellular) was measured by using a cAMP-screen ELISA System (Tropix #CS1000).

Another data set deals with T2, h-DP2 (Homo sapiens, UniProt Q9Y5Y4).
T2 construct: expressed in transfected cells; host or cells: HEK 293(ebna) cells or other stably transfected cells; membranes
T2 sequence (Q9Y5Y4 1-395): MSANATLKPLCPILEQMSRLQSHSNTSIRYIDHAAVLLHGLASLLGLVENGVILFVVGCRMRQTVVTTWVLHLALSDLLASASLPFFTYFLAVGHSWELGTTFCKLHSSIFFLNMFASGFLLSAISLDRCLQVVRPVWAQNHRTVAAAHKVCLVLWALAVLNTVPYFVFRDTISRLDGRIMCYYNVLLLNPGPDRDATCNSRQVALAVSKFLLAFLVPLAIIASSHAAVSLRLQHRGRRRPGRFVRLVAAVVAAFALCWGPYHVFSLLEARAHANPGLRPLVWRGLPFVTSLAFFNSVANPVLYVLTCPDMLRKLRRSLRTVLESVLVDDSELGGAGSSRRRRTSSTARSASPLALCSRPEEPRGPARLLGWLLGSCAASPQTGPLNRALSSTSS
Description: Prostanoid receptor binding assay, DP2. The settings on record: n = 2. The protocol:
as §1, §2, §3

The subject of data set [3] is human penile cavernosal tissue strips. Description: Organ bath: relaxation of human penile cavernosal tissue strips after contraction with phenylephrine. The protocol:
Human tissue procurement. Cavernosal tissue is obtained from patients undergoing penile prosthesis implantation surgery for treatment of erectile dysfunction. In the operating room, biopsies of the corpora cavernosa are immediately placed in chilled (4° C.) physiologic salt solution and transported to the laboratory. Tissue strips, measuring approximately 3 mm×3 mm×10 mm, are cut and prepared for organ bath studies.
Preparation of compound stock solutions and dose responses. PGE1 (Cayman Chemical Co., Ann Arbor, Mich.) is stored at −20° C. in solid form until the day of use. Stock solutions are made by adding 1 ml of 70% DMSO to a vial containing 1 mg of PGE1. Compounds of the invention are dissolved in 1 ml of 70% DMSO, divided into 100 μl aliquots and stored at −20° C. until use. For dose responses in organ baths, stock solutions of PGE1 and compounds of the invention are diluted with 70% DMSO to make the highest concentration and then serially diluted with 2% DMSO for all other doses. In a typical dose response curve, the concentration of DMSO is checked to remain below […] in the 25 ml bath and to not exceed 0.5% at the highest dose.
Organ bath studies. Human or rabbit cavernosal tissue strips are mounted onto a fixed support with silk ties and attached to a tension transducer (model FT03; GrassTelefactor, Astro-Med, Inc. West Warwick, R.I.) with a rigid metal wire. After mounting, tissue strips are immersed in 25 ml baths of physiologic salt solution (PSS; 118.3 mM NaCl, 4.7 mM KCl, 0.6 mMMgSO4, 1.2 mMKH2PO4, 2.5 mMCaCl2, 25 mMNaHCO3, 0.026 mM CaNa2EDTA, 11.1 mM glucose). The solution is gassed with 95% […]/5% CO2 to attain a pH of 7.4 and the temperature is maintained at 37° C. All tissue strips are treated with 3 μM indomethacin to inhibit endogenous prostanoid production and minimize spontaneous contractile activity. The corpus cavernosum tissue is stretched incrementally and the optimal resting isometric tension for contraction is determined. After every 3-4 stretches (1 g tension/stretch), the tissue is contracted with 1 μM phenylephrine. When the amplitude of the phenylephrine-induced contraction is within 10% of the previous contraction, that tension is considered optimal for isometric contraction. All tissue strips are extensively washed with fresh PSS. Tissue strips are then contracted with 1 μM phenylephrine. After stable tone is achieved, tissue strips are exposed to increasing concentrations of PGE1 or compounds of the invention.
Data analysis. At the end of each experiment, all tissue strips are treated with 10 μM papaverine and 10 μM nitroprusside to induce maximal relaxation (100%). The total amount of relaxatory response over the range of drug concentrations tested is determined by the area under the plotted curves. EC50 values are calculated using Prism software (GraphPad, San Diego, Calif.). For final analysis of data, relaxation parameters are compared using ANOVA. If the ANOVA p-value is less than 0.05, paired post-test comparisons is carried out using the Tukey-Kramer test.

The subject of the next data set is rabbits. Description: In vivo intracavernosal injection, erectile response (ICP/SAP). The settings on record: rabbit. Here is the method:
DP agonists were solubilized in 40% propylene glycol and administered by intracavernosal injection to deliver the indicated dose in 0.1 ml total volume. Since penile intracavernosal pressure (ICP) is ultimately limited by the systemic arterial pressure (SAP), all erectile responses were normalized by calculating the ration of ICP/SAP.

Setting [4] is: after contraction with phenylephrine.

Regarding `O=C(O)CCCCCC[C@H]1CCC(=O)N1CCC(O)C1CCCCC1` (stereo in doubt) [Example 4, 7-{(2S)-1-[(3R)-3-cyclohexyl-3-hydroxypropyl]-5-oxopyrrolidin-2-yl}heptanoic acid], the Ki on h-DP1 [1] was 47.2 nM; on h-DP2 it was over 10000 nM. On h-DP1 [2], this compound yielded an EC50 of 1.38 nM.
Turning to `O=C(O)CCCCCCC1C(=O)NC(=O)N1CCC(O)C1CCCCC1` (stereo not shown) [BW245C, reference compound], the EC50 was 0.031 nM at h-DP1 [2] and 59 nM in data set [3] (setting [4]).
`O=C(O)c1ccc(CCC[C@H]2CCC(=O)N2CC[C@@H](O)C2CCCCC2)cc1` [Example 1, 4-(3-(2S)-1-[(3R)-3-cyclohexyl-3-hydroxypropyl]-5-oxotetrahydro-1H-2-pyrrolylpropyl)benzoic acid] displayed a Ki on h-DP1 [1] of 2.4 nM. Besides, the inhibitory constant (Ki) on h-DP2 is over 10000 nM. Further, the half-maximal effective concentration (EC50) in data set [3] (Homo sapiens, after contraction with phenylephrine) turned out to be 29 nM. For the same compound, the “Relaxation of human penile cavernosal tissue strips (in words)” value in data set [3] (setting [4]) was “dose-dependent relaxation”. In data set [3] (human cavernosal tissue), the “Extent of relaxation (maximal effect) versus BW245C” value was “greater”. Moreover, the Systemic blood pressure result with rabbits (any dose) is recorded as “no overt changes”. For the same compound, in the data set with rabbits (intracavernosal), the Arterial pressure result is recorded as “remained constant”, the “Duration of transient episodes of penile tumescence” value was 1 to 3 min and the “ICP/SAP (peak response or AUC) compared to vehicle” value is on record as “dose-dependant increases”. In the data set with rabbits (intracavernosal, 5 μg, single animals), the “Penile response at highest dose” value was “repeated and transient episodes of spontaneous penile tumescence; also recorded: penile resistance arteries were fully dilated”. Besides, in the data set with rabbits (intracavernosal, 40% propylene glycol), the “Penile tumescence after intracavernosal injection” value is reported as “sustained periods of penile tumescence or transient episodes”.
`O=C(O)c1ccc(CCC[C@H]2CCC(=O)N2CC[C@H](O)C2CCCCC2)cc1` [Example 2, 4-(3-(2S)-1-[(3S)-3-cyclohexyl-3-hydroxypropyl]-5-oxotetrahydro-1H-2-pyrrolylpropyl)benzoic acid]: the Ki was 10.5 nM at h-DP1 [1] and over 10000 nM at h-DP2. For the same compound, at h-DP1 [2], the EC50 worked out at 0.71 nM.
In the same order, the values of `O=C(O)CCCCCC[C@H]1CCC(=O)N1CC[C@@H](O)C1CCCCC1` [Example 3, 7-{(2S)-1-[(3R)-3-cyclohexyl-3-hydroxypropyl]-5-oxopyrrolidin-2-yl}heptanoic acid] are 1.8 nM, over 10000 nM and 0.037 nM.
`CCCCC[C@H](O)/C=C/[C@H]1C(=O)C[C@H](O)[C@@H]1C/C=C\CCCC(=O)O` [PGD2] had a Ki at h-DP1 [1] of 4.1 nM. The EC50 (on h-DP1 [2]; in data set [3] (setting [4])) was 0.3 nM throughout. Moreover, the “Effect at concentrations higher than 0.3 μM” value in data set [3] (human cavernosal tissue) is given as “caused contraction”. Besides, the “Concentration through which dose-dependent relaxation was seen” value in data set [3] (human cavernosal tissue, contraction at higher concentration) is at most 0.3 µM.
In turn, `CCCCC[C@H](O)/C=C/[C@H]1[C@H](O)CC(=O)[C@@H]1CCCCCCC(=O)O` [PGE1] had an EC50 in data set [3] (setting [4]) of 210 nM.
